The results in this text go back to paper PMC12203613 (Journal of Agricultural and Food Chemistry, 2025).

Molecules are shown by their SMILES.

Holding throughout (assay type): biochemical
In test [1] the target is T1, OsHPPD (4-hydroxyphenylpyruvate dioxygenase) (Oryza sativa, UniProt Q6H4V1).
T1 sequence (Q6H4V1 2-446): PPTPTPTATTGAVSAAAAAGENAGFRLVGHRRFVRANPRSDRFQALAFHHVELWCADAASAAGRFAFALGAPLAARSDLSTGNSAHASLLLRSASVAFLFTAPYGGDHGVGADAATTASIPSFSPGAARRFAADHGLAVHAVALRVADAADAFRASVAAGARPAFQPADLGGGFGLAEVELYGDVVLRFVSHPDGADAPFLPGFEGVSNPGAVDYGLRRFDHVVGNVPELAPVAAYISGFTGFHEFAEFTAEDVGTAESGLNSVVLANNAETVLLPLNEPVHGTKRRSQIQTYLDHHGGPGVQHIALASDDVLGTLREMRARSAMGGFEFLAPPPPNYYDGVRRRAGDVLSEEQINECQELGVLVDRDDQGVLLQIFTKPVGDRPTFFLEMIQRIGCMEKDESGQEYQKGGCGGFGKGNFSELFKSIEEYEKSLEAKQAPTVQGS
In words: X-ray co-crystal structure at […] Å.

Test [2] has as its target T2, AtHPPD (4-hydroxyphenylpyruvate dioxygenase) (Arabidopsis thaliana, UniProt P93836).
T2 sequence (P93836 1-445): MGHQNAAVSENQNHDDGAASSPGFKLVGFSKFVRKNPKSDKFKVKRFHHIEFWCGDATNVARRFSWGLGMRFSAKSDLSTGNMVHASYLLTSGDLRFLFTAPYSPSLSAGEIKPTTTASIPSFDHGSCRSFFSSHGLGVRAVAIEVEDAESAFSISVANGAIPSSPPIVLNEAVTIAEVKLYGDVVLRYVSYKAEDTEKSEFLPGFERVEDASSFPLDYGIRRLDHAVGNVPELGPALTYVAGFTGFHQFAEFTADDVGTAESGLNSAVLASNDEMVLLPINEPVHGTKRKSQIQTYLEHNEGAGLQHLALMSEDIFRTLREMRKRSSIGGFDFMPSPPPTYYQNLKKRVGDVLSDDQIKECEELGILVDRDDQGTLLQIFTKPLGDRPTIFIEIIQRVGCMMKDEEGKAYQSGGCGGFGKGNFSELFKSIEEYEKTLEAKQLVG
Description: X-ray co-crystal structure at […] Å.

Test [3] deals with T2, AtHPPD (4-hydroxyphenylpyruvate dioxygenase). In words: coupled enzyme assay.
In test [4] the target is T1, OsHPPD (4-hydroxyphenylpyruvate dioxygenase). Description: coupled enzyme assay.

`Cc1nnc(NC(=O)c2ccc(C(F)(F)F)n3c(CS(=O)(=O)C(C)C)nnc23)o1` [iptriazopyrid, 3-[(isopropylsulfonyl)-methyl]-N-(5-methyl-1,3,4-oxadiazol-2-yl)-5-(trifluoromethyl)-[1,2,4]-triazolo[4,3-a]-pyridine-8-carboxamide]: the Ki was 33.3 ± 3.3 nM in test [1] and 24.3 ± 0.3 nM in test [2].
For `CS(=O)(=O)c1ccc(C(=O)C2C(=O)CCCC2=O)c([N+](=O)[O-])c1` [mesotrione], the Ki in test [3] is 22.1 ± 4.5 nM; in test [4] it was 26.5 ± 10.8 nM.
